From ChEMBL document CHEMBL1201862, “PubChem BioAssay data set” (2004)
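Tested at 5 concentrations; 48 h exposure; 96-well plates; endpoints linearly interpolated, else capped at highest concentration. Abbreviation: GI50, concentration required for 50% inhibition of growth.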 Active and inactive are the calls of the source. No stated cut-off is given here; in the data, active = GI50 up to about 1.1 µM and inactive = higher.

Columns and labels:
Experiment in all cases: NCI tumour cell line growth inhibition, 48 h
[1] = system: CCRF-CEM
[2] = system: HOP-92
[3] = system: IGROV-1
[4] = system: K562
[5] = system: LOX IMVI
[6] = system: LXFL 529
[7] = system: M14
[8] = system: NCI-H23
[9] = system: RPMI-8226
[10] = system: SF-295
[11] = system: SK-MEL-2
[12] = system: SK-OV-3
[13] = system: SNB-19
[14] = system: SNB-75
[15] = system: U-251
[16] = system: UACC-257
[17] = system: OVCAR-4
[18] = system: OVCAR-5
[19] = system: DU-145
[20] = system: SR

SMILES | GI50 [1] | GI50 [2] | GI50 [3] | GI50 [4] | GI50 [5] | GI50 [6] | GI50 [7] | GI50 [8] | GI50 [9] | GI50 [10] | GI50 [11] | GI50 [12] | GI50 [13] | GI50 [14] | GI50 [15] | GI50 [16] | GI50 [17] | GI50 [18] | GI50 [19] | GI50 [20]
Cn1cc(C2(C)CC(C)(C)c3c2n(C)c2ccccc32)c2ccccc21 (stereo not drawn) | 92.7 µM (inactive) | > 100 µM (inactive) | > 100 µM (inactive) | 83.8 µM (inactive) | > 100 µM (inactive) | > 100 µM (inactive) | > 100 µM (inactive) | 95.3 µM (inactive) | 40.2 µM (inactive) | > 100 µM (inactive) | > 100 µM (inactive) | > 100 µM (inactive) | > 100 µM (inactive) | > 100 µM (inactive) | > 100 µM (inactive) | > 100 µM (inactive) | – | – | – | –
CC1(O)CC2C(CC1SCCO)C2(C)C (stereo not drawn) | > 100 µM (inactive) | > 100 µM (inactive) | > 100 µM (inactive) | > 100 µM (inactive) | – | > 100 µM (inactive) | > 100 µM (inactive) | > 100 µM (inactive) | > 100 µM (inactive) | > 100 µM (inactive) | > 100 µM (inactive) | > 100 µM (inactive) | – | > 100 µM (inactive) | > 100 µM (inactive) | > 100 µM (inactive) | > 100 µM (inactive) | > 100 µM (inactive) | – | –
COc1ccc(CC2C(=O)NC(C)C(=O)N(C)C3C(=O)N(C)C(Cc4ccc(O)c(c4)Oc4ccc(cc4)C3O)C(=O)NC(C)C(=O)NC(C)C(=O)N2C)cc1.COc1ccc(CC2C(=O)NC(C)C(=O)N(C)C3Cc4ccc(cc4)Oc4cc(ccc4O)CC(C(=O)NC(C)C(=O)NC(C)C(=O)N2C)N(C)C3=O)cc1 (stereo not drawn) | 0.00177 µM (active) | 0.00364 µM (active) | 0.01 µM (active) | 0.01 µM (active) | 0.00237 µM (active) | – | 0.00582 µM (active) | 0.00552 µM (active) | 0.0019 µM (active) | 0.0274 µM (active) | 0.00114 µM (active) | 0.0179 µM (active) | 0.000638 µM (active) | 0.01 µM (active) | 0.0012 µM (active) | 0.00322 µM (active) | 0.0127 µM (active) | 0.00995 µM (active) | 0.00364 µM (active) | 0.01 µM (active)
Cn1nc(-c2ccccc2)c(C(=O)/C=C/c2ccc(Cl)cc2)c(N2CCCCC2)c1=O | 2.18 µM (inactive) | 1.91 µM (inactive) | 2.15 µM (inactive) | 2.04 µM (inactive) | 2.41 µM (inactive) | 1.8 µM (inactive) | 3.15 µM (inactive) | 2.19 µM (inactive) | 2.05 µM (inactive) | 0.719 µM (active) | – | 3.52 µM (inactive) | 2.14 µM (inactive) | – | 1.86 µM (inactive) | – | – | – | – | –
O=C(CC(=O)Nc1ccccc1Cl)NNC(c1cc(/N=N/c2ccc(Br)cc2)ccc1O)P(O)O (stereo not drawn) | 0.451 µM (active) | 5.98 µM (inactive) | 6.9 µM (inactive) | 2.4 µM (inactive) | 1.07 µM (active) | – | 0.61 µM (active) | 2.53 µM (inactive) | 2.84 µM (inactive) | 1.67 µM (inactive) | > 10 µM (inactive) | 3.03 µM (inactive) | 4.1 µM (inactive) | 1.62 µM (inactive) | 1.54 µM (inactive) | 3.2 µM (inactive) | 2.34 µM (inactive) | 3.61 µM (inactive) | 2.42 µM (inactive) | 0.766 µM (active)
Cc1c(NC(=O)Nc2c(Cl)cccc2Cl)c(=O)n(-c2ccccc2)n1C | 46.7 µM (inactive) | > 100 µM (inactive) | > 100 µM (inactive) | > 100 µM (inactive) | > 100 µM (inactive) | – | > 100 µM (inactive) | > 100 µM (inactive) | > 100 µM (inactive) | > 100 µM (inactive) | > 100 µM (inactive) | > 100 µM (inactive) | > 100 µM (inactive) | > 100 µM (inactive) | > 100 µM (inactive) | > 100 µM (inactive) | > 100 µM (inactive) | > 100 µM (inactive) | > 100 µM (inactive) | > 100 µM (inactive)
COc1cc(I)c2c3c1OC1C34CCN(C)C(C2)C4=CC(I)C1(OC)OC (stereo not drawn) | 5.36 µM (inactive) | 13.1 µM (inactive) | 20.1 µM (inactive) | 20.7 µM (inactive) | 19.6 µM (inactive) | – | 37.4 µM (inactive) | 24.5 µM (inactive) | 19.6 µM (inactive) | 46.2 µM (inactive) | 16.4 µM (inactive) | 24.8 µM (inactive) | 27.4 µM (inactive) | 15.9 µM (inactive) | 18.3 µM (inactive) | 19.3 µM (inactive) | 15 µM (inactive) | 24.2 µM (inactive) | 18.7 µM (inactive) | 16.1 µM (inactive)
COC(=O)C1=C(C)N(NC(N)=O)C(C)(O)C12CCOC2=O (stereo not drawn) | > 100 µM (inactive) | > 100 µM (inactive) | > 100 µM (inactive) | > 100 µM (inactive) | > 100 µM (inactive) | > 100 µM (inactive) | > 100 µM (inactive) | > 100 µM (inactive) | > 100 µM (inactive) | > 100 µM (inactive) | > 100 µM (inactive) | > 100 µM (inactive) | > 100 µM (inactive) | – | > 100 µM (inactive) | > 100 µM (inactive) | > 100 µM (inactive) | > 100 µM (inactive) | – | –
